Values quoted from earlier work in patent publication US20260284233A1, “IMAGING METHODS AND AGENTS FOR GRADING AND STAGING AND SUBSEQUENT TREATMENT OF PROSTATE CANCER IN A PATIENT” (Progenics Pharmaceuticals, Inc., priority 2023, published 2026).

Key:
[1] = test system: extracellular domain of PSMA
[2] = 333 MBq (9 mCi) dose; data from clinical trials; compared with commonly used tracers for oncologic imaging

binding affinity to the extracellular domain of PSMA [1]: high affinity
SMILES: O=C(O)CC[C@H](NC(=O)N[C@@H](CCCCNC(=O)c1ccc([18F])nc1)C(=O)O)C(=O)O [piflufolastat F18]
mean effective radiation dose to the whole body [2]: lower than commonly used tracers for oncologic imaging
